Assay results reported in EP2682005A1, “A dietary supplement composition” (Symrise AG, priority 2012, dated 2014).

What was measured:
Type in all cases: biochemical
[1] = Activity against free radicals, Method A (DPPH radical, optical density at 513 nm)
Method: (§1) The effectiveness of the test substances against free radicals was tested by various chemical and biochemical methods: Method A A first test was carried out using diphenylpicrylhydrazyl (DPPH°) which is a relatively stable radical that forms a purple-coloured solution. The optical density (DO) at 513 nm was determined. Method B Hydroxyl radicals were released from hydrogen peroxide in the presence of iron (II) ions and EDTA and were used to oxidize desoxyribose. The oxidation product forms a pink-coloured compound with thiobarbituric acid. Its concentration corresponds to the optical density at 532 nm. A test was conducted to determine whether less desoxyribose is oxidized, i.e. whether fewer free radicals are released, in the presence of the test products. […] Method D Xanthine oxidase is an enzyme which is released through oxidative stress and catabolizes the decomposition of the purine bases adenine and guanine into uronic acid and superoxide anions. The superoxide anions dismute into hydrogen peroxide and oxygen either spontaneously or in the presence of Superoxid Dismutase. The quantity of superoxide anion can be determined by NBT reduction via the optical density at 490 nm. A test was conducted to determine whether fewer superoxide anions are generated or more anions are destroyed in the presence of the test substances. The results are set out in Table 1 and represent the EC50 values in % (w/v).

[2] = Activity against free radicals, Method B (hydroxyl radicals from hydrogen peroxide with iron (II) ions and EDTA, desoxyribose oxidation); conditions: optical density at 532 nm
Method: as §1, with “The results are set out in Table 1 and represent the EC50 values in % (w/v).” left out

[3] = Activity against free radicals, Method C (desoxyribose oxidation in the absence of EDTA, forming inactive iron complexes); conditions: as Method B in the absence of EDTA
Method: as §1, with “The results are set out in Table 1 and represent the EC50 values in % (w/v).” left out

Xanthine oxidase = Xanthine oxidase (Homo sapiens, UniProt P47989); assay: Activity against free radicals, Method D (xanthine oxidase, superoxide anion by NBT reduction); conditions: optical density at 490 nm
Chain of Xanthine oxidase (P47989 whole entry, species assumed): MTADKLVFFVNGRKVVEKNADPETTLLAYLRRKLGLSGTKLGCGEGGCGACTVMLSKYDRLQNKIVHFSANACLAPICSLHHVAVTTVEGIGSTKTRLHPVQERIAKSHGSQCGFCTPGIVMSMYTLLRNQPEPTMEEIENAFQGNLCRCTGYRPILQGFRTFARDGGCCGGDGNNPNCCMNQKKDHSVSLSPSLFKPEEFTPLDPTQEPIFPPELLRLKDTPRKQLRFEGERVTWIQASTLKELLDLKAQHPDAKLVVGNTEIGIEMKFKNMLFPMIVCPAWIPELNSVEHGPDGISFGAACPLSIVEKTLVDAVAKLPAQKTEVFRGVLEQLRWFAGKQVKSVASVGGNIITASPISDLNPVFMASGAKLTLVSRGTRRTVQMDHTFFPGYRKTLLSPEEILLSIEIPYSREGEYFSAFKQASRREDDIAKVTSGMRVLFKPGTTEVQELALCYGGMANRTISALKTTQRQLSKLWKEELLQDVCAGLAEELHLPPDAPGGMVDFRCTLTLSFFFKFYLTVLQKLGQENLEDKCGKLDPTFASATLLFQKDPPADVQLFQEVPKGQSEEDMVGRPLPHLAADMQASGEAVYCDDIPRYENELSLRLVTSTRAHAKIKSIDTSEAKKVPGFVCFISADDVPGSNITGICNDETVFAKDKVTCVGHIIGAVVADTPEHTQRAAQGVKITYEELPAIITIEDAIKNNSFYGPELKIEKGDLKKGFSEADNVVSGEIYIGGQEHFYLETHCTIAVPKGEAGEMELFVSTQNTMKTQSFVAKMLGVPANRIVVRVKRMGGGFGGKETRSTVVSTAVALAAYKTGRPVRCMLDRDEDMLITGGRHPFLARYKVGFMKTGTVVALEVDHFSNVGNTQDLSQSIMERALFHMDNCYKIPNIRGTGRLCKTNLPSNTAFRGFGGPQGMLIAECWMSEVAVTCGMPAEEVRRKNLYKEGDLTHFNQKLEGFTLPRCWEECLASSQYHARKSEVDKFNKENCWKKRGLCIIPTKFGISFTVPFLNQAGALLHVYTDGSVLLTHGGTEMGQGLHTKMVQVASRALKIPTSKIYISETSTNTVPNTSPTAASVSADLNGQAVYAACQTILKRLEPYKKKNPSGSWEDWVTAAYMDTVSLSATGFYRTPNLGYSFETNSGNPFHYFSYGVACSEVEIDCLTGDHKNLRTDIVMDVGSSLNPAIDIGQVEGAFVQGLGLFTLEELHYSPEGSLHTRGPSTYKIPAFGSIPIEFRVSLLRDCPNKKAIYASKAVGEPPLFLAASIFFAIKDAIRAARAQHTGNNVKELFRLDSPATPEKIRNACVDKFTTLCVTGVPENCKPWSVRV
Method: as §1, with “substances.” for “substances. The results are set out in Table 1 and represent the EC50 values in % (w/v).”
The results are set out in Table 1 and represent the EC50 values in % (w/v).

Compound	EC50, Method A [1]	EC50, Method B [2]	EC50, Method C [3]	EC50, Method D (Xanthine oxidase)
O=C1O[C@H]([C@@H](O)CO)C(O)=C1O [Ascorbic acid]	0.0013 % (w/v)	0.26 % (w/v)	0.9 % (w/v)	0.59 % (w/v)
Butylhydroxytoluol	0.0500 % (w/v)	–	–	No effect
Tocopherol	0.0067 % (w/v)	–	–	No effect
